Measurements as given in patent US20030170643A1, “Regulation of apoB treatment and drug screening for cardiovascular and metabolic disorders or syndromes” (priority 1999, published 2003).

Experiments:
Assay type in all cases: cell-based
[1] = test system: rat hepatoma cells; assay: Pulse-chase recovery of [35S]-apoB100 (apoB100 degradation) in rat hepatoma cells; conditions: for effect on DHA-stimulated apoB100 degradation: rat hepatoma cells or primary hepatocytes, co-treatment with DHA/BSA
Description: (§1) FIG. 13 illustrates that either an iron chelator (DFX) or lipid antioxidants block DHA-stimulated apoB degradation and reactive oxygen species (ROS) production. Rat hepatoma cells were plated in culture wells and pre-incubated in media containing either DHA or DHA with one of the indicated compounds. Radiolabeled methionine/cysteine was added to the culture media for 15 minutes, after which time, the culture media were replaced by fresh media identical in composition except that radiolabeled methionine/cysteine were replaced by unlabeled methionone/cysteine. The recovery of labeled apoB100 ([^35S]-apoB100) from the media and cell lysate was determined at the indicated time points (with time 0 being the point when the fresh media were applied to the cells) by immunoprecipitating apoB species with a rabbit polyclonal antibody to rat apoB, resuspending the immunoprecipitates, combining aliquots from cell lysate and media samples from each well, resolving the protein contents of the combined immunoprecipitates by SDS-polyacrylamide gel electrophoresis (SDS-PAGE), and exposing the resultant gels to X-ray film in order to visualize the labeled apoB bands. In panel A are shown representative signals for radiolabeled apoB100 in each of the treatment conditions. […] For each treatment, there were at least 2 wells/treatment for each time point and the entire experiment repeated. The signal intensities of the apoB100 bands were quantified by densitometry and the mean relative recoveries (the % of the 15 minute, or initial, value still remaining at 120 minutes) ±SEM are shown in panel B. Note that the visual impressions observable in panel A are confirmed by the quantitative analysis; i.e., there is a substantial increase in labeled apoB100 recovery with any of the co-treatments. In panel C, the ROS content of the cell lysates at the end of the experiment was measured by the standard TBARS assay (Stocks et al., 1974, Clin Sci Mol Med 47,215-222). Note that compared to control (BSA), DHA induced a large increase in TBARS, as expected because of its high content on unsaturated bonds.
FIG. 14 illustrates that DHA, but not saturated MA, induces apoB100 degradation in rat hepatoma cells. An experiment similar to the one described in FIG. 13 was performed, with the following changes: A) The immunoprecipitates from cell lysate and media samples were not combined, but separately analyzed. B) In addition to the 15 and 120 minute time points, apoB recovery was determined at 30 minutes. C) In addition to DHA, the effects of the fatty acid myristic (MA) were also tested because it has no unsaturated bonds and should not give rise to ROS.
FIG. 15 illustrates that AA stimulates apoB100 degradation and increases ROS. […] Note in the upper panel that the combined recovery (from two separate wells/time point) of radiolabeled apoB100 decreased from 15 to 120 minutes, indicating significant apoB100 degradation had occurred in the presence of AA. […] In addition to being a source of ROS, AA can also be converted by cyclooxygenase (COX) to bioactive prostaglandin compounds. We therefore repeated the experiment with AA but with co-treatment by the COX inhibitor aspirin.
To further explore the underlying mechanisms, rat hepatoma cells or primary hepatocytes were incubated with the Ω-3 fatty acid DHA complexed to BSA, while blocking candidate cellular mediators. […] There was, however, strong evidence against a role for calcium. Chelation of intracellular Ca^++ with BAPTA-AM, pharmacologic blockage of Ca^++ channels, depletion of the ER-calcium pool, and increasing Ca++ influx with an ionophore each had no effect. Because EGTA also chelates Fe^+++, and DHA is subject to Fe^+++-dependent peroxidation, the role of this lipid modification was examined. As shown in FIG. 13A and 13B, Desferroxamine (DFX), a chelator of Fe^+++, the antioxidant vitamin E (Vit E), and the synthetic antioxidant BHT, each inhibited DHA-stimulated apoB100 degradation by ˜60%.

[2] = test system: rat hepatoma cells; assay: TBARS assay of ROS in cell lysates of rat hepatoma cells; conditions: fatty acid alone
Description: as §1, with “bonds. […] FIG. 15 illustrates that AA stimulates apoB100 degradation and increases ROS. […] Note in the upper panel that the combined recovery (from two separate wells/time point) of radiolabeled apoB100 decreased from 15 to 120 minutes, indicating significant apoB100 degradation had occurred in the presence of AA. […] In addition to being a source of ROS, AA can also be converted by cyclooxygenase (COX) to bioactive prostaglandin compounds. We therefore repeated the experiment with AA but with co-treatment by the COX inhibitor aspirin.” for “bonds.”

[3] = test system: rat primary hepatocytes; assay: Secretion of newly synthesized ([35S]methionine-labeled) VLDL-apoproteins by rat primary hepatocytes incubated with fatty acid/BSA complexes; conditions: fatty acid/BSA complexes (0.8 mM FA), VLDL fraction
Description: Cells were plated at a density of 2×10^6 cells/ml on 60-mm culture dishes (previously coated with poly-D-lysine) in modified M199 medium (M199, 1% fetal bovine serum [FBS], 1 mM nicotinamide, 0.1 nM insulin, 3 mg/ml choline, 1.1% L-glutamine, 1% BSA). After a four-hour attachment period, the medium was changed (modified M199 identical to the above except BSA was omitted and the concentration of FBS was raised to 10%). The next morning, cells were washed in serum-free medium three times, the experimental media added, and the cells incubated at 37° C. for 4-6 hours. The experimental medium consisted of serum-free RPMI containing the appropriate isotopes (see below) and fatty acids (FA) present at a final concentration of 0.8 mM complexed to BSA (FA:BSA molar ratio=5:1). The fatty acids used were oleic (OA), EPA, and DHA. Control medium was identical, except that BSA (0.16 mM) without fatty acids was present. For metabolic labeling of proteins, [^35S]methionine (70 uCi/ml) was included in the experimental media.
Following the 4-6 hour incubation period, the cell monolayer was washed, then solubilized in 0.1 M NaOH, and the cell protein determined by the Lowry method (Lowry, O. H., Rosebrough, N. J., Farr, A. L., and Randall, R. J. (1951) J Biol Chem 193, 265-75). Each 60 mm dish contained approximately 1-1.5 mg of cell protein. The secreted apoproteins were isolated from the medium either by ultracentrifugation or immunoprecipitation. To isolate the d<1.006 (VLDL) and 1.006<d<1.063 (IDL and LDL) g/ml density classes by centrifugation, sequential 20 hour runs at 48,000 rpm in a 50 Ti Beckman rotor at 4° C. were performed. After the first run at d=1.006, the upper VLDL layer was harvested and the density of the infranatant adjusted to 1.066 g/ml with solid KBr. After being overlaid with a KBr solution of density 1.063, the adjusted infranatant was re-centrifuged as before to isolate the IDL and LDL fractions. In some experiments, the HDL fraction (1.063<d<1.21) was isolated by sequential density centrifugation. Lipoprotein fractions were then dialyzed against 0.9% NaCl containing 10 mM unlabeled methionine, 0.2 mM PMSF, and 2 mM EDTA. Dialyzed lipoproteins were delipidated using 9 volumes of 100% isopropanol. Apoproteins were then collected by centrifugation in a Sorval HB-4 rotor at 10,000 rpm and 4° C. for 20 min, and dissolved in buffer (0.01 M phosphate, pH 7,1 % SDS, 10% glycerol), in preparation for electrophoresis.
To immunoprecipitate apoB or apoE from unfractionated conditioned medium, monospecific rabbit antiserum to rat apoB or apoE was used. Briefly, an aliquot of the medium was mixed with an equal volume of diluted antiserum (1:100 in PBS and 1% BSA) and incubated overnight at 4° C. Staph A was added in the form of immunoprecipitin, and the resultant precipitate containing the immune complexes was washed extensively, the staph A cells removed, and the isolated apoprotein dissolved in gel sample buffer (0.0625M tris/Cl, pH 6.8, 20% glycerol, 2% SDS). Electrophoretic separation of apoVLDL, apoIDL/LDL, and immunoprecipitates was accomplished using 3.5% acrylamide-18% glycerol gels as described (Maguire, G. F., Lee, M., and Connelly, P. W. (1989) J Lipid Res 30, 757-61). An aliquot of each sample was taken for scintillation counting, so that total radioactivity applied to each lane could be determined. Also, protein size standards were included in each gel.
After electrophoresis, the gels were stained, fixed, soaked in Enhance fluor solution, and dried following protocols supplied by the manufacturer. Dried gels were then exposed to X-ray film at −70° C. and signals on the resulting fluorograms were typically quantified by densitometry or phosphorimaging. Using the total radioactivity applied to each lane of the gel and the relative signal intensity of each band in that lane, the radioactivity associated with each apoprotein species was calculated. […]

[4] = test system: Rat McA hepatoma cells; assay: Proteasome inhibition and apoB degradation in rat McA hepatoma cells
Description: FIG. 8 illustrates that EPA stimulates apoB degradation even when proteasomes are inhibited. Panel A: Rat McA hepatoma cells were incubated at 37° C. for 4 hr in [^35S]methionine-containing medium supplemented with either BSA (C) or EPA/BSA complexes (EPA) in the absence (EPA) or presence (EPA+LAC) of the proteasome inhibitor, lactacystin. Samples of cell lysates and conditioned media were subjected to immunoprecipitation analysis with anti-apoB antiserum, followed by SDS-PAGE and fluorography. In three separate experiments, the effect of lactacystin on EPA-induced degradation averaged less than 20%. Panel B: Rat McA hepatoma cells were incubated at 37° C. for 4 hr in [^355]methionine-containing medium supplemented with either BSA (Control) or BSA and lactacystin (LAC). After immunoprecipitation/SDS-PAGE analysis of the cell lysate and media samples, the resulting fluorograms were analyzed by phosphorimager and the recovery of total (cell+medium) apoB100 was quantified. The results shown (mean total recovery relative to control, ±SE) are based on 8 independent determinations. * indicates P<0.001, LAC vs. control.
To determine whether the proteasome mediated Ω-3 fatty acid-induced apoB degradation, rat hepatoma cells were incubated at 37° C. for 4 hr in [^35S]methionine-containing medium supplemented with either BSA or EPA/BSA complexes in the absence or presence of the proteasome inhibitor, lactacystin ([…]; purchased from the laboratory of Dr. E. J. Corey, Harvard University). Samples of cell lysates and conditioned media were subjected to immunoprecipitation analysis with anti-apoB antiserum, followed by SDS-PAGE and fluorography. To determine whether Ω-3 fatty acids targeted apoB to lysosomal degradation, a similar experiment was performed substituting ammonium chloride (40 mM) for lactacystin.

## CCCCC/C=C\C/C=C\C/C=C\C/C=C\CCCC(=O)O [AA, arachidonic acid]
[1]; AA plus aspirin
  AA-induced apoB100 degradation with co-treatment by the COX inhibitor aspirin: still induced apoB100 degradation
[1]; rat hepatoma cells, 15 to 120 minutes chase
  apoB100 degradation induced by the fatty acid: stimulates the degradation of apoB
[2]
  reactive oxygen species (ROS), TBARS assay, fatty acid compared to BSA: increases

## CC(=O)OCOC(=O)CN(CC(=O)OCOC(C)=O)c1ccccc1OCCOc1ccccc1N(CC(=O)OCOC(C)=O)CC(=O)OCOC(C)=O [BAPTA-AM]
[1]
  effect on DHA-stimulated apoB100 degradation: no effect

## O=C(O)CN(CC(=O)O)c1ccccc1OCCOc1ccccc1N(CC(=O)O)CC(=O)O [BAPTA]
[1]
  effect on DHA-stimulated apoB100 degradation: blocked

## Cc1cc(C(C)(C)C)c(O)c(C(C)(C)C)c1 [BHT, butylhydroxytoluene]
[1]; co-treatment with DHA, FIG. 13A and 13B
  inhibition of DHA-stimulated apoB100 degradation: ~60%

## O=C(O)CN(CCOCCOCCN(CC(=O)O)CC(=O)O)CC(=O)O [EGTA]
[1]
  effect on DHA-stimulated apoB100 degradation: blocked

## CC/C=C\C/C=C\C/C=C\C/C=C\C/C=C\CCCC(=O)O [EPA, eicosapentaenoic acid]
[3]
  secretion of newly synthesized VLDL-ApoB48, percentage of secretion observed with BSA alone: 45 ± 3 percentage
  secretion of newly synthesized VLDL-ApoB100, percentage of secretion observed with BSA alone: 25 ± 2 percentage
  secretion of newly synthesized VLDL-ApoE, percentage of secretion observed with BSA alone: 45 ± 1 percentage

## CCCCCCCCCCCCCC(=O)O [MA, myristic acid]
[2]
  reactive oxygen species (ROS), TBARS assay, fatty acid compared to BSA: does not increase

## CC(=O)Oc1ccccc1C(=O)O [aspirin]
[1]
  effect on DHA-stimulated apoB100 degradation: no effect

## CC(=O)N[C@@H](CSC(=O)[C@]1([C@@H](O)C(C)C)NC(=O)[C@H](C)[C@@H]1O)C(=O)O [lactacystin]
[4]; FIG. 8 Panel A
  inhibition of EPA-induced apoB degradation: little if any inhibition
[4]; FIG. 8 Panel B, total (cell+medium), P<0.001 vs control
  apoB100 recovery in the absence of Ω-3 fatty acids: increased
[4]; average of three separate experiments, 4 hr
  effect of lactacystin on EPA-induced apoB degradation: less than 20%
